For the test, the target named is T1, h-11βHSD1 (Homo sapiens, UniProt P28845).
T1 construct: made in house
In words: 11βHSD1 enzyme assay (scintillation proximity assay). The note with it: extract of yeast transformed with h-11βHSD1; 120 nM 3H-cortisone, 4 mM β-NADPH; 60 min at 30° C. Type of test: biochemical. How it is done:
Pharmacological Methods 11βHSD1 enzyme assay Materials
^3H-cortisone and anti-rabbit Ig coated scintillation proximity assay (SPA) beads were purchased from Amersham Pharmacia Biotech, β-NADPH was from Sigma and rabbit anticortisol antibodies were from Fitzgerald. An extract of yeast transformed with h-11βHSD1 (Hult et al., FEBS Lett, 441, 25 (1998)) was used as the source of enzyme. The test compounds were dissolved in DMSO (10 mM). All dilutions were performed in a buffer containing 50 mM TRIS-HCl (Sigma Chemical Co), 4 mM EDTA (Sigma Chemical Co), 0.1% BSA (Sigma Chemical Co), 0.01% Tween-20 (Sigma Chemical Co) and 0.005% bacitracin (Novo Nordisk A/S), pH=7.4. Optiplate 96 wells plates were supplied by Packard. The amount of ^3H-cortisol bound to the SPA beads was measured on TopCount NXT, Packard.
h-11βHSD1, 120 nM ^3H-cortisone, 4 mM β-NADPH, antibody (1:200), serial dilutions of test compound and SPA particles (2 mg/well) were added to the wells. The reaction was initiated by mixing the different components and was allowed to proceed under shaking for 60 min at 30° C. […] Data was analysed using GraphPad Prism software.
A general note: In a scintillation proximity assay essentially only radioactivity close to the scintillant gives light.

Structures are written as SMILES.

T1 sequence (P28845 whole entry): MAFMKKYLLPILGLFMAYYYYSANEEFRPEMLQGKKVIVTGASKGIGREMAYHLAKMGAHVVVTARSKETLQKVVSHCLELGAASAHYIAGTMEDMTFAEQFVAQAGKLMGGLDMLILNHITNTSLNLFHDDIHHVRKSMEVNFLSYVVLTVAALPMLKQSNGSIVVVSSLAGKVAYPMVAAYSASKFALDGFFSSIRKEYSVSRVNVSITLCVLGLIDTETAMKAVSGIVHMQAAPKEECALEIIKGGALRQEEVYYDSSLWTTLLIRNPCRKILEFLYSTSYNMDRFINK

In the case of `CCn1c(SCC(=O)N2CCCc3ccccc32)nnc1-c1ccccc1Br` [Comp A, 2-[5-(2-Bromo-phenyl)-4-ethyl-4H-[1,2,4]triazol-3-ylsulfanyl]-1-(3,4-dihydro-2H-quinolin-1-yl)-ethanone], the IC50 came out at 160 nM. In the case of `Cn1c(SCC(=O)c2ccccc2)nnc1C1CCCCC1` [Comp B, 2-(5-Cyclohexyl-4-methyl-4H-[1,2,4]triazol-3-ylsulfanyl)-1-phenyl-ethanone], it took 190 nM to reach half-maximal inhibition (IC50).

The IC50 is the concentration that gives 50% inhibition.

Values taken from patent publication US20060100235A1, “Pharmaceutical use of substituted 1,2,4-triazoles” (Novo Nordisk A/S, priority 2003, published 2006).
